“Also recorded” adds a separate entry of the source.
Legend:
MS patients = details: cited from earlier work
[1] = test system: progressive multiple sclerosis patients; assay: Clinical evaluation (EDSS, maximum walking distance, walking speed) after repeated intrathecal TCA applications; assay type: in vivo, human; details: for clinical benefit / functional recovery: not immediately responding patients
Procedure: Subjects. 25 MS patients (age: 50±1.64 [mean±SEM, years] were studied. The average MS duration was 14.02±1.71 [years]. The subjects included 14 women and 11 men. The subjects included 13 secondary progressive [8 women, 5 men] and 12 primary progressive [6 women, 6 men]). […] Design. TCA application was followed by a mandatory stay in bed for at least six hours in order to support and ease the diffusion of TCA in the CSF and the spinal cord. Lumbar puncture was performed with an atraumatic Sprotte needle. The preexisting immune system modulating drug therapy remained stable. Spasticity reducing therapy was not changed. Expanded Disability Status Score (EDSS) ratings, maximum walking distance, and walking speed assessments were performed at baseline and on each day after a 40 mg Triamcinolone acetonide (TCA) administration, dissolved in 10 ml saline, up to the fourth TCA application. Statistics. ANCOVA with repeated measures design were employed for this exploratory analysis of this pilot trial. Covariates were MS duration, MS types, sex and age as covariates. The post hoc analysis was done with the Tukey's multiple comparisons test against baseline. The statistical analysis was performed with GraphPad Prism 5 Software. […] Clinical evaluation was performed at baseline and on each day after a triamcinolone administration in 25 progressive multiple sclerosis patients. Before the TCA was administered to a patient, 1-2 ml aliquots of CSF were withdrawn. RGMa concentrations were determined before each triamcinolone application by western blot analysis with quantification. Dependent on the disease activity, the patients usually received 4-6 TCA applications.

[2] = test system: progressive multiple sclerosis patients; assay: Side effects during TCA therapy; assay type: in vivo, human; details: all participants (25 MS patients)
Procedure: Design. TCA application was followed by a mandatory stay in bed for at least six hours in order to support and ease the diffusion of TCA in the CSF and the spinal cord. Lumbar puncture was performed with an atraumatic Sprotte needle. The preexisting immune system modulating drug therapy remained stable. Spasticity reducing therapy was not changed. Expanded Disability Status Score (EDSS) ratings, maximum walking distance, and walking speed assessments were performed at baseline and on each day after a 40 mg Triamcinolone acetonide (TCA) administration, dissolved in 10 ml saline, up to the fourth TCA application. […] Clinical evaluation was performed at baseline and on each day after a triamcinolone administration in 25 progressive multiple sclerosis patients. Before the TCA was administered to a patient, 1-2 ml aliquots of CSF were withdrawn. RGMa concentrations were determined before each triamcinolone application by western blot analysis with quantification. Dependent on the disease activity, the patients usually received 4-6 TCA applications.

RGMa = RGMa levels in cerebrospinal fluid by Western blot with densitometric quantification; assay type: in vivo, human
[3] = treated MS patients, numerous TCA studies

Question: Which results are given for `CC1(C)O[C@@H]2C[C@H]3[C@@H]4CCC5=CC(=O)C=C[C@]5(C)[C@@]4(F)[C@@H](O)C[C@]3(C)[C@]2(C(=O)CO)O1` [TCA, triamcinolone acetonide]?
Answer: CSF synthesis of free radicals (MS patients; patients with a distinct immediate enhancement of upper and lower limb function): Reduced; EDSS (Expanded Disability Status Score) (MS patients; [3]): decreased; walking distance (MS patients; [3]): increased; walking speed (MS patients; [3]): decreased; walking speed ([1]; 8 not immediately responding patients, F=0.021, ns, FIG. 4C): no significant change; also recorded: no improved; EDSS scores ([1]; 8 not immediately responding patients, F=1, ns, FIG. 4A): no significant change; also recorded: no improved; maximum walking distances ([1]; 8 not immediately responding patients, F=1.52, ns, FIG. 4B): no significant change; also recorded: no improved; walking speed ([1]; 17 immediate responders (3 wheel chair bound excluded), F=3.42, p<0.01, FIG. 3C): improved; walking speed ([1]; 17 immediate responders (3 wheel chair bound excluded), F=3.42, p<0.01, FIG. 3C, listed as Triamcinolone Acetonide): went up; walking speed ([1]; 17 immediate responders (3 wheel chair bound excluded), F=3.42, p<0.01, FIG. 3C, listed as triamcinolone): ameliorated; maximum walking distances ([1]; 17 immediate responders (3 wheel chair bound excluded), F=3.64, p=0.01, FIG. 3B): improved; maximum walking distances ([1]; 17 immediate responders (3 wheel chair bound excluded), F=3.64, p=0.01, FIG. 3B, listed as Triamcinolone Acetonide): increased; maximum walking distances ([1]; 17 immediate responders (3 wheel chair bound excluded), F=3.64, p=0.01, FIG. 3B, listed as triamcinolone): ameliorated; EDSS scores ([1]; 17 immediate responders, 40 mg TCA intrathecal, repeated, F=8.55, p<0.009, FIG. 3A): improved; EDSS scores ([1]; 17 immediate responders, 40 mg TCA intrathecal, repeated, F=8.55, p<0.009, FIG. 3A, listed as Triamcinolone Acetonide): went down; EDSS scores ([1]; 17 immediate responders, 40 mg TCA intrathecal, repeated, F=8.55, p<0.009, FIG. 3A, listed as triamcinolone): improved; patients reporting a delayed improvement within three weeks after the TCA applications ([1]; among the 8 not immediately responding patients): 6 patients; clinical benefit / functional recovery [1]: no functional recovery; clinical benefit / functional recovery ([1]; listed as triamcinolone): no prompt clinical benefit; patients improved following treatment ([1]; of 25 progressive MS patients): 17 patients; patients who did not immediately respond during the observation period ([1]; of 25 progressive MS patients): 8 patients; serious side effects [2]: no serious side effects; RGMa concentrations in CSF (RGMa; not immediately responding patients): no decrease; RGMa 40 kDa form level in CSF (RGMa; not immediately responding patients, F=0.84, ns, FIG. 7A): No significant changes; RGMa 30 kDa form level in CSF (RGMa; not immediately responding patients, F=2.98, ns, FIG. 7B): No significant changes; RGMa levels in CSF (all investigated fragments) (RGMa; responders): decreased; RGMa 40 kDa form level in CSF (RGMa; responders, F=9.12, p<0.0001, FIG. 5A): decline; RGMa 30 kDa form level in CSF (RGMa; responders, less pronounced than 40 kDa, F=3.82, p<0.05, FIG. 5B): decline; RGMa levels in CSF (all investigated fragments) (RGMa; responders, listed as Triamcinolone Acetonide): reduction; RGMa levels in CSF (all investigated fragments) (RGMa; responders, listed as triamcinolone): declined
